{"source": "ChEMBL document CHEMBL1201862", "about": "“PubChem BioAssay data set” (2004)", "key": {"Streptokinase A": {"molecular_target": "T1, Streptokinase A (Streptococcus pyogenes serotype M1, UniProt P10520)", "T1 sequence (P10520 whole entry)": "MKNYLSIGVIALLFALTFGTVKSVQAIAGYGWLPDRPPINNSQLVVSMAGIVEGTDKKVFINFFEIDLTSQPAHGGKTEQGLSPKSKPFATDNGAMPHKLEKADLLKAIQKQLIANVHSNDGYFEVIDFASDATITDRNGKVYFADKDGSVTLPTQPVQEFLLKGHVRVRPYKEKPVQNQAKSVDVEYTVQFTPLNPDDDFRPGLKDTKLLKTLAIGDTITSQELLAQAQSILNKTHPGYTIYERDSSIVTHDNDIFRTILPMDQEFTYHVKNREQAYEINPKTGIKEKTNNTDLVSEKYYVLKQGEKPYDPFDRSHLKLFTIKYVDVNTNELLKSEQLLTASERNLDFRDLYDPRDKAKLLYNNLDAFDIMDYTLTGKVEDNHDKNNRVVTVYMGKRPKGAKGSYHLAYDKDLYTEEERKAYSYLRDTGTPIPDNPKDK", "experiment": "viability-normalized secreted streptokinase activity reduction – plasminogen activation absorbance, OD405, dose response (AID 1914);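 note: secreted streptokinase activity via plasminogen activation per viability signal from cell pellet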", "assay_type": "functional, Streptococcus pyogenes M1 GAS"}, "Streptococcus [1]": {"tested_on": "Streptococcus", "experiment": "Luminescence Microorganism-Based Dose Response Follow up to Identify Compounds Cytotoxic to Streptococcus. [Related pubchem assays: 1677 (Project Summary), 1915, 1914, 1902 (Retest at Dose), 1900 (Counter Screen), 1662 (Primary HTS)]", "assay_type": "functional, organism-based"}, "Streptococcus [2]": {"tested_on": "Streptococcus", "experiment": "GAS UMAA2166 growth inhibition – luminescence, BacTiterGlo, counter-screen for streptokinase expression inhibitor project, dose response (AID 1915)", "assay_type": "functional, organism-based"}, "[3]": {"tested_on": "Streptococcus sp. 'group A'", "experiment": "Streptococcus pyogenes SK(-)GAS viability under kanamycin – luminescence, BacTiterGlo, confirmation, counter-screen for streptokinase expression inhibitor project, dose response (AID 1900)", "assay_type": "functional, organism-based"}, "Staphylococcus aureus": {"tested_on": "Staphylococcus aureus", "experiment": "Inhibitors of Bacterial Quorum Sensing Structure Activity Relationship (SAR) Analysis: Dose Response Assay. [Related pubchem assays: 700, 527 ]", "assay_type": "functional, organism-based"}, "[4]": {"molecular_target": "Cyclin-dependent kinase 5/CDK5 activator 1 (Homo sapiens, UniProt Q00535)", "sequence (Q00535 whole entry)": "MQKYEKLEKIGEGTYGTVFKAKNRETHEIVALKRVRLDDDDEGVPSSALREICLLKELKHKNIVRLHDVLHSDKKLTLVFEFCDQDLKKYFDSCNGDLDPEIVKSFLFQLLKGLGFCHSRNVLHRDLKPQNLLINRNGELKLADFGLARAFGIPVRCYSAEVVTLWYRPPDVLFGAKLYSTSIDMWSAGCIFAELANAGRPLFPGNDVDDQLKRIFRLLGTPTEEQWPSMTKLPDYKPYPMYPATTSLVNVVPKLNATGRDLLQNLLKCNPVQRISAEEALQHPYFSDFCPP", "sequence (Q15078 whole entry, further chain)": "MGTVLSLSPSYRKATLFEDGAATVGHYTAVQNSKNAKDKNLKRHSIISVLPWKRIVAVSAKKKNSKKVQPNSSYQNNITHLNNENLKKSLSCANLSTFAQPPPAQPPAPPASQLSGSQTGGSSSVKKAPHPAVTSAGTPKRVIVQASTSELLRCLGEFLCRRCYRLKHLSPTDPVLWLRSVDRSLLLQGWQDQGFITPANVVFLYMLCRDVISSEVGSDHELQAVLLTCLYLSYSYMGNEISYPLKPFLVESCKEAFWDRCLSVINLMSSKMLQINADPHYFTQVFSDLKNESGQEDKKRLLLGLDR", "experiment": "blockade of human CDK5 activity – biochemical, cherry-picked samples, set 2, dose response (AID 504545)"}, "[5]": {"molecular_target": "Dual specificity tyrosine-phosphorylation-regulated kinase 1A (Rattus norvegicus, UniProt Q63470)", "assay_type": "biochemical, Homo sapiens"}, "[6]": {"molecular_target": "T2, Endoribonuclease toxin MazF (Escherichia coli K-12, UniProt P0AE70)", "T2 sequence (P0AE70 whole entry)": "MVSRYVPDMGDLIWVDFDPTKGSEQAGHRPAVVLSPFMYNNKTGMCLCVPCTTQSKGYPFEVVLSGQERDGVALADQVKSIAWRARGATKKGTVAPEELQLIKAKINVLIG", "experiment": "substrate-only fluorescence increase artefacts – biochemical, single-stranded RNase substrate, counter-screen for MazEF activator project, dose response (AID 588502)", "assay_type": "functional"}, "[7]": {"molecular_target": "T2, Endoribonuclease toxin MazF", "experiment": "activation of MazEF endoribonuclease cleavage – biochemical, fluorescence, single-stranded RNA substrate, uHTS hits, dose response (AID 588481)", "assay_type": "functional"}, "[8]": {"molecular_target": "T3, Rac GTPase-activating protein 1 (Homo sapiens, UniProt Q9H0H5)", "T3 sequence (Q9H0H5 whole entry)": "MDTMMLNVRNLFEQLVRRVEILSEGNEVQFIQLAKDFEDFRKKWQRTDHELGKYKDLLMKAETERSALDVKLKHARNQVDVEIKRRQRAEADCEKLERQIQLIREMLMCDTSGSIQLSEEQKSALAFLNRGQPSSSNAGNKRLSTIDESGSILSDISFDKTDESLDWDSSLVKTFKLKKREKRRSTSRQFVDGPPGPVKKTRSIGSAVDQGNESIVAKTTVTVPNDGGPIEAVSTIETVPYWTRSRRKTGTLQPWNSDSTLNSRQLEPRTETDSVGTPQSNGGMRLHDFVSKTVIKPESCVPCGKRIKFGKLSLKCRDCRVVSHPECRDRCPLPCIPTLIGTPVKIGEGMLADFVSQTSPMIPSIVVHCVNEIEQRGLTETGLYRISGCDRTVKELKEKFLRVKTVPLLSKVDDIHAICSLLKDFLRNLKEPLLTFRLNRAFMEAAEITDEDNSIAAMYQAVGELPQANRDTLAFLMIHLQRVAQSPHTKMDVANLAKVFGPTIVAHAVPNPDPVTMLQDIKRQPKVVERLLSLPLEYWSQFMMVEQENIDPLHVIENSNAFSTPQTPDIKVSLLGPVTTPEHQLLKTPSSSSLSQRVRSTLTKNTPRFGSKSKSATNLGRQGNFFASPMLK", "experiment": "blockers of MgcRacGAP-driven Rac1 GTP hydrolysis – biochemical, ADP Hunter fluorescence, primary and confirmatory, confirmation (AID 624330)", "assay_type": "functional"}, "[9]": {"molecular_target": "Ras and Rab interactor 1/Tyrosine-protein kinase ABL1 (Homo sapiens, UniProt P00519+Q13671)", "sequence (P00519 whole entry)": "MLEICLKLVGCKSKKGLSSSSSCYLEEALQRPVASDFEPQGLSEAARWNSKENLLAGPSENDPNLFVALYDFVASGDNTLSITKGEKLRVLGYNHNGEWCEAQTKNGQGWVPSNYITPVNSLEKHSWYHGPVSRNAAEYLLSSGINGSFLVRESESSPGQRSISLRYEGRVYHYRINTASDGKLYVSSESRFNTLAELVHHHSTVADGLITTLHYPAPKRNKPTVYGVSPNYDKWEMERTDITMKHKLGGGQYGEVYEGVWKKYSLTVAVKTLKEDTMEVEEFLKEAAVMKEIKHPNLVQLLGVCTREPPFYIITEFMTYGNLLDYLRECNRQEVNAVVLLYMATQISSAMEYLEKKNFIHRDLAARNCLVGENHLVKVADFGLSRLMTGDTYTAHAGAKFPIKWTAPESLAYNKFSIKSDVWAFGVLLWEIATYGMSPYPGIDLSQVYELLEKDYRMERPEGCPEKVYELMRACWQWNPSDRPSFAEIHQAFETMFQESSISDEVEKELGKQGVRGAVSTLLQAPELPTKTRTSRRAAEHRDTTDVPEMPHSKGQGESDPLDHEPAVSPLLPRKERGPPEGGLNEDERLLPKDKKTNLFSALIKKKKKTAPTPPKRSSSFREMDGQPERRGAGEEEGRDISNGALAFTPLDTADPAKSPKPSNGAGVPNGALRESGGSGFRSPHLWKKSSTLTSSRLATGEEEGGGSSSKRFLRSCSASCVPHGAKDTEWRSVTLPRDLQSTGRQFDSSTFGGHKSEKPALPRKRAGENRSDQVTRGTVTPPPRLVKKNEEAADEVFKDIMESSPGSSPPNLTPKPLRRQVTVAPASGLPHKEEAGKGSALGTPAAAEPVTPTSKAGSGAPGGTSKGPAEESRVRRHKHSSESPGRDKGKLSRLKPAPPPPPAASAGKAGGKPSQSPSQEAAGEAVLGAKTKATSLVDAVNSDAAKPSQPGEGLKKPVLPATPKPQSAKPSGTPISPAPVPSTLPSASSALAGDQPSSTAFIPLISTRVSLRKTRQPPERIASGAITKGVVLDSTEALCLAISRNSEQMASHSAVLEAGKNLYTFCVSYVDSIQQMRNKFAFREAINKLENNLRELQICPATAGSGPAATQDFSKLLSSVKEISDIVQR", "sequence (Q13671 whole entry)": "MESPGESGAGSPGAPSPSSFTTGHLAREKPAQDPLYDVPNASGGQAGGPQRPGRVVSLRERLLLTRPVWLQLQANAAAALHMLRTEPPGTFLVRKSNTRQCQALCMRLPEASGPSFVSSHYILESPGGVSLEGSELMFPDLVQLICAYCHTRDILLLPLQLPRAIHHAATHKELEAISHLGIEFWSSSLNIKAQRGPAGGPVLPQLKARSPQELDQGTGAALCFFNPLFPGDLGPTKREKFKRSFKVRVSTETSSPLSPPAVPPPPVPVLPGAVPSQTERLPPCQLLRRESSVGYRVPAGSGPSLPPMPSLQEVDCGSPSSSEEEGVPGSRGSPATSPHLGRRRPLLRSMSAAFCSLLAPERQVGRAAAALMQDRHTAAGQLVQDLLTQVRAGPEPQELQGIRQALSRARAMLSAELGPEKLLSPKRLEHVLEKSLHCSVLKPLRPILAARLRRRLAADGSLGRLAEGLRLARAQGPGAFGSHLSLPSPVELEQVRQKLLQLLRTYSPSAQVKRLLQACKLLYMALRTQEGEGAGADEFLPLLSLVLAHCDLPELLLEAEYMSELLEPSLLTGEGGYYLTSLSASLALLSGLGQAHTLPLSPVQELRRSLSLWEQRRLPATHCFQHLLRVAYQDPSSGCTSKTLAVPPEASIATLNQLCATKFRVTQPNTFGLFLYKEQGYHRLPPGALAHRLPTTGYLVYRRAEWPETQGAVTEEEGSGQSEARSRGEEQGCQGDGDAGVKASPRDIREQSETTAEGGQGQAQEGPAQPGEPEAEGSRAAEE", "assay_type": "functional"}, "[10]": {"molecular_target": "T4, Short transient receptor potential channel 4 (Mus musculus, UniProt Q9QUQ5)", "T4 sequence (Q9QUQ5 whole entry)": "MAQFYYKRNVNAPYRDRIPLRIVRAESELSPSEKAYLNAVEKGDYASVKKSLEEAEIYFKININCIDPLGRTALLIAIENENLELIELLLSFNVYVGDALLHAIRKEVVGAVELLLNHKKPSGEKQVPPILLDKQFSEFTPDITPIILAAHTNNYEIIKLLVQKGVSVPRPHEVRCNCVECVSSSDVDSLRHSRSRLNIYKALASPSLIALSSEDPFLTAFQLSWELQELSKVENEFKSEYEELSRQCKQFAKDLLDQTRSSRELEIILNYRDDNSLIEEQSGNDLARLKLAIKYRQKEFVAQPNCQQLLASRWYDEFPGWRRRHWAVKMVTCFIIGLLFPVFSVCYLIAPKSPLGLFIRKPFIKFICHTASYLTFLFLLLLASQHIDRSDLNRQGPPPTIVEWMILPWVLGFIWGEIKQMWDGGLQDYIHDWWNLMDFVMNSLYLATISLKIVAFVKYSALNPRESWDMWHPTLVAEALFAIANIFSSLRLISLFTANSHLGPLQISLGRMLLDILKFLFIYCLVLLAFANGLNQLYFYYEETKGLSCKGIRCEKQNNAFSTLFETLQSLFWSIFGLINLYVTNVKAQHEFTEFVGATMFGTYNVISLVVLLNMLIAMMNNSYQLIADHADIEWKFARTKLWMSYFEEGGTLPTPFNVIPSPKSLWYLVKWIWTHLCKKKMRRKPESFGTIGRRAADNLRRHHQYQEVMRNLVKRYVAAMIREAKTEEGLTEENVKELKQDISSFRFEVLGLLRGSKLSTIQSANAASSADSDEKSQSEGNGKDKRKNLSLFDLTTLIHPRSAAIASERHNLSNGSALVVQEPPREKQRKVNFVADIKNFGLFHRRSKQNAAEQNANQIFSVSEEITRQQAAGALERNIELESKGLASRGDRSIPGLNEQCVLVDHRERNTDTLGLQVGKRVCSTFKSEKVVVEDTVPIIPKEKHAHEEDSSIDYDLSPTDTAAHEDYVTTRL", "experiment": "block of DAMGO-driven TRPC4 calcium entry – cell-based, HEK293 TRPC4/mu-opioid, Fluo-4 calcium, dose response (AID 434942)", "assay_type": "functional"}, "[11]": {"experiment": "viability loss in HeLa cells – cytotoxicity control for MgcRacGAP inhibitor project, dose response (AID 624300)", "assay_type": "functional"}, "[12]": {"molecular_target": "T5, Zinc finger protein mex-5 (Caenorhabditis elegans, UniProt Q9XUB2)", "T5 sequence (Q9XUB2 whole entry)": "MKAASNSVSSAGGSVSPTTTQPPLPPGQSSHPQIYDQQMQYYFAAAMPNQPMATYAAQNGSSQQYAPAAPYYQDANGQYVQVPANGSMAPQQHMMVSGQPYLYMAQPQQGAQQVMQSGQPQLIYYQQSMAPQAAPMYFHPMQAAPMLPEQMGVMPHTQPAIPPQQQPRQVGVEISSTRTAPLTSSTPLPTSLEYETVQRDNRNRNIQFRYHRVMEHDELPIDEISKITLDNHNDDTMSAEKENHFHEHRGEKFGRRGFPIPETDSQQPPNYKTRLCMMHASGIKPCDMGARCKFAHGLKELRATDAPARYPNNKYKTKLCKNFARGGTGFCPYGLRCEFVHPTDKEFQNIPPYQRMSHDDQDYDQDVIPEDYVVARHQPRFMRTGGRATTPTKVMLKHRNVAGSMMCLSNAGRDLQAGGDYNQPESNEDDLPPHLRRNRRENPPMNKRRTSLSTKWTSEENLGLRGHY", "experiment": "potency of MEX-5 RNA-binding blockers – biochemical, C. elegans, fluorescence polarization, dose response (AID 1960)"}, "[13]": {"molecular_target": "FAD-linked sulfhydryl oxidase ALR (Homo sapiens, UniProt P55789)", "sequence (P55789 whole entry)": "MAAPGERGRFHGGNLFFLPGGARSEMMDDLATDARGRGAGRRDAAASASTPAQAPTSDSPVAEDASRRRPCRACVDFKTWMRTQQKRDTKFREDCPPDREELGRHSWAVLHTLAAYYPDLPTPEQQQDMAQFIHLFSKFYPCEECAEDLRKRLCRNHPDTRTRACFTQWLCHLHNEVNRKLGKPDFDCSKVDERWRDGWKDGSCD", "experiment": "ALR-catalysed DTT oxidation blockers – biochemical, H2O2 detection, luminescence, cherry-pick, dose response (AID 493248)"}, "[14]": {"molecular_target": "T6, RNA-binding protein pos-1 (Caenorhabditis elegans, UniProt G5EF15)", "T6 sequence (G5EF15 whole entry)": "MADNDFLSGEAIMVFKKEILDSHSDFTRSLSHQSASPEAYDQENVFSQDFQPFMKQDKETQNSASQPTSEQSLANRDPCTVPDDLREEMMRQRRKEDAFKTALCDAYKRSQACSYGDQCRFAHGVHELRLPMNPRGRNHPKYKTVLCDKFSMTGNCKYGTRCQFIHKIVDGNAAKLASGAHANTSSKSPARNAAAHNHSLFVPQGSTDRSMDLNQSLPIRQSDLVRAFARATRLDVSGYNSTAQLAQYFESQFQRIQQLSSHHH", "experiment": "disruptors of C. elegans POS-1 RNA interaction – biochemical, fluorescence polarization, dose response (AID 1964);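 note: purified POS-1 fused to maltose binding protein made in E. coli; potency of compounds blocking POS-1 binding to fluorescent RNA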"}, "[15]": {"molecular_target": "Transitional endoplasmic reticulum ATPase (Homo sapiens, UniProt P55072)", "sequence (P55072 whole entry)": "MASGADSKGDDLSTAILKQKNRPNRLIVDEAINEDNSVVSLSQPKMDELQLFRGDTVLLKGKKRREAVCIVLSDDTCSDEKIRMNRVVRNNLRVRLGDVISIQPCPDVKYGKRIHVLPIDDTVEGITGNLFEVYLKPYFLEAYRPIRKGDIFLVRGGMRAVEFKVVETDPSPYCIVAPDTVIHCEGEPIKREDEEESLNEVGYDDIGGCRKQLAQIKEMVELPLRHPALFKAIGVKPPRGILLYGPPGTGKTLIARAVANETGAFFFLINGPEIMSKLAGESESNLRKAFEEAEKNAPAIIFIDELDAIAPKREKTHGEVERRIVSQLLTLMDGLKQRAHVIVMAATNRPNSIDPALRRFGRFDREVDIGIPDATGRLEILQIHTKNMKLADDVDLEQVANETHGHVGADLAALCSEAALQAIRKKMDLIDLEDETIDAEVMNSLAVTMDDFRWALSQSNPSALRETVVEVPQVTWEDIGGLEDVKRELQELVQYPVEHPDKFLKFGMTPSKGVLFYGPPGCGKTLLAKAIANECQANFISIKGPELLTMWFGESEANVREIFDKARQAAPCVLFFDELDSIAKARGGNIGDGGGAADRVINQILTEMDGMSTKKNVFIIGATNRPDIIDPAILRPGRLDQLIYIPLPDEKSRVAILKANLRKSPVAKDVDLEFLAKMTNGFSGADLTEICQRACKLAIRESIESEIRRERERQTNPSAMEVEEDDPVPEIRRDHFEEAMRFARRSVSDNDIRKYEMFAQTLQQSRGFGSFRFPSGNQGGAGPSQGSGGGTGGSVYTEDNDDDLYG", "experiment": "p97 ATPase inhibitors, dose response, biochemical (AID 1534)"}, "[16]": {"molecular_target": "Transitional endoplasmic reticulum ATPase (Homo sapiens, UniProt P55072, C522A)", "sequence (P55072 2-806 C522A limits assumed)": "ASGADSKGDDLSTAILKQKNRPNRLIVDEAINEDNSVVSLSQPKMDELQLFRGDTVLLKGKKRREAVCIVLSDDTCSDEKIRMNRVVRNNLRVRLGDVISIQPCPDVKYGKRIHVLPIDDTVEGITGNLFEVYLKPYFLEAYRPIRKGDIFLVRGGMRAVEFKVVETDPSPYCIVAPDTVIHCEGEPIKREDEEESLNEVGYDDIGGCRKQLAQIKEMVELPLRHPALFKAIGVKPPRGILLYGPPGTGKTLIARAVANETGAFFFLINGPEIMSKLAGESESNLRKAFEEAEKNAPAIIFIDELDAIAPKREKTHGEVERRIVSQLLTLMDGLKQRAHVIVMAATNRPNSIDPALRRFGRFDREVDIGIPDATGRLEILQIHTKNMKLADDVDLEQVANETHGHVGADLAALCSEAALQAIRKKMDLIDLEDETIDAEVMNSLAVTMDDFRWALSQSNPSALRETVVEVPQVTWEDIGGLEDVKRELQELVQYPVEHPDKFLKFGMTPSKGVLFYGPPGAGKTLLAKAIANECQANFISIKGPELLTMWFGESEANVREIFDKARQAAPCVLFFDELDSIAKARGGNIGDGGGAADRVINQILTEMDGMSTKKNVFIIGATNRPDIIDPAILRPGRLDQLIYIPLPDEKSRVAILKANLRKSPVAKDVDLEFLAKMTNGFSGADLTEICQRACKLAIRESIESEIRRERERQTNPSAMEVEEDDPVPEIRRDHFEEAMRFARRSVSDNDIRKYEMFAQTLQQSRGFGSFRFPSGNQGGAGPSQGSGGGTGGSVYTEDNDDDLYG", "experiment": "C522A mutant p97 ATPase inhibitors, dose response, counter-screen for p97 inhibitor project, biochemical, luminescence (AID 1544)"}}, "note": "Activity calls are given as the source filed them.", "data": [{"smiles": "FC(F)(F)c1nc(N2CCN(c3ccccc3)CC2)nc2c1CCCCC2", "values": [{"measurement": "EC50", "setting": "Streptokinase A", "value": "5.5 µM (active)"}, {"measurement": "EC50", "setting": "Streptococcus [1]", "value": "> 500 µM (not active)"}, {"measurement": "EC50", "setting": "Streptococcus [2]", "value": "> 150 µM (not active)"}, {"measurement": "EC50", "setting": "[3]", "value": "2.83 µM (active)"}]}, {"smiles": "COc1ccc(S(=O)(=O)c2nnn3c2[nH]c(=O)c2ccccc23)cc1", "values": [{"measurement": "IC50", "setting": "Staphylococcus aureus", "value": "563 nM (active)"}]}, {"smiles": "O=c1c(O)c(-c2ccc(O)c(O)c2)oc2cc(O)ccc12", "values": [{"measurement": "AC50", "setting": "[4]", "value": "1.69 µM (active)"}, {"measurement": "AC50", "setting": "[5]", "value": "248 nM (active)"}, {"measurement": "EC50", "setting": "[6]", "value": "> 99 µM (inactive)"}, {"measurement": "EC50", "setting": "[7]", "value": "> 99 µM (inactive)"}, {"measurement": "IC50", "setting": "[8]", "value": "45.7 µM (active)"}, {"measurement": "IC50", "setting": "[9]", "value": "> 73.5 µM (inactive)"}]}, {"smiles": "NS(=O)(=O)c1ccc(Nc2nc(-c3ccc(O)cc3O)cs2)cc1", "values": [{"measurement": "EC50", "setting": "[10]", "value": "1.33 µM (active)"}, {"measurement": "CC50", "setting": "[11]", "value": "100 µM (active)"}, {"measurement": "EC50", "setting": "[12]", "value": "9.7 µM (active)"}, {"measurement": "AC50", "setting": "[13]", "value": "3.12 µM (active)"}, {"measurement": "AC50", "setting": "[5]", "value": "1940 nM (active)"}, {"measurement": "EC50", "setting": "[14]", "value": "17.1 µM (active)"}, {"measurement": "IC50", "setting": "[8]", "value": "44.5 µM (active)"}, {"measurement": "IC50", "setting": "[15]", "value": "24.2 µM (not active)"}, {"measurement": "IC50", "setting": "[16]", "value": "> 50 µM (not active)"}]}]}
